PMC8201324, “Pyrazoles and Pyrazolines as Anti-Inflammatory Agents” (Molecules, 2021)
pIC50: −log10 of the molar value. Where two headings read alike, the source gives them in different places. Marks after values point to notes of the source that are not given here.

Key:
[1] = target: T1, soybean lipoxygenase (Glycine max, UniProt P08170); assay: Soybean lipoxygenase inhibition study; assay type: biochemical; settings: sodium linoleate 0.1 mM; for LOX % Inhibition at 100 µM / inhibition at 100 µM: compound 100 µM; for inhibition at 100 µM: read-out: LOX % Inhibition at 100 µM
T1 construct: purchased Sigma Chemical, Co
T1 sequence (P08170 1-839): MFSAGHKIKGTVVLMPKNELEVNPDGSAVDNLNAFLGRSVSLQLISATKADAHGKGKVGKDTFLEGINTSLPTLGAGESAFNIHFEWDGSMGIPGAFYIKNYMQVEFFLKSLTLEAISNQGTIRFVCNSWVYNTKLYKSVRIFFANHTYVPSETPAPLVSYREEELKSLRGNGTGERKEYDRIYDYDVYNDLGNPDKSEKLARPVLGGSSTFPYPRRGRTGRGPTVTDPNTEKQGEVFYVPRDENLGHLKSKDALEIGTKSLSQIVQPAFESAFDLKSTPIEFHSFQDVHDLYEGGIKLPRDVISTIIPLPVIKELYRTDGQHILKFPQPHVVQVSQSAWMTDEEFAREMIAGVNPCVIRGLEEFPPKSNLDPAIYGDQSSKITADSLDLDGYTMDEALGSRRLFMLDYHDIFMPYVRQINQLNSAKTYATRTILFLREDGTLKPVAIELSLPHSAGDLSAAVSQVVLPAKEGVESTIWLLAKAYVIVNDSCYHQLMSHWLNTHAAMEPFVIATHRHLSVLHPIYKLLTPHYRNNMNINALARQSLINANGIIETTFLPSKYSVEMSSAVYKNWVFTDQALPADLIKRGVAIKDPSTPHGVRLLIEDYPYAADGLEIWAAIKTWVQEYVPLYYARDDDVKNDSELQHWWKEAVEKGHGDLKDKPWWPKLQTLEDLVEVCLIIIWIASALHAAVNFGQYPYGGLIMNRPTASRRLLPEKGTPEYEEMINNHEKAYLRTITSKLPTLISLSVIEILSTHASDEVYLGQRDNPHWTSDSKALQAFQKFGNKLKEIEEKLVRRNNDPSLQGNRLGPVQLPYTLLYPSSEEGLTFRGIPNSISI
Method: Lipoxygenase (LOX) is the key enzyme implicated in membrane lipid peroxidation by forming hydroperoxides, thus it is considered a target for inflammatory diseases. […] For the in vitro study, soybean lipoxygenase was used, based on the homology to mammalian lipoxygenase. […] A stock solution (1% DMSO in the appropriate buffer with the tested compound diluted under sonication) was prepared for the in vitro assays from which several dilutions were made with the appropriate buffer. […] The stock solutions of the compounds were incubated with sodium linoleate (0.1 mM) and 0.2 mL of soybean lipoxygenase solution (1/9 × 10^-4 w/v in saline) at room temperature. In vitro test was performed as previously published.

[2] = ABTS+ decolorization assay for antioxidant activity; assay type: biochemical
From the text: Pyrazolines 2d and 2e which are the most lipophilic compounds, showing antioxidant activity using the ABTS radical cation (ABTS^•+) generated through potassium persulfate by oxidation with no participation of an intermediary radical. This reduction is completed by adding electron-donating antioxidants. It seems that lipophilicity influences the activity, since both present high lipophilicity values.
A stock solution (1% DMSO in the appropriate buffer with the tested compound diluted under sonication) was prepared for the in vitro assays from which several dilutions were made with the appropriate buffer. The in vitro experiments were performed at least in triplicate, and the standard deviation of absorbance was less than 10% of the mean.
The ABTS radical cation (ABTS^+•) was generated by mixing ABTS stock solution in water (7 mM) with potassium persulfate (2.45 mM) and left in the dark at room temperature for 12–16 h before use. The results are recorded immediately after the mixing solutions at 734 nm. The results were compared to the appropriate standard inhibitor Trolox (Table 4).

[3] = test system: acetic acid-induced writhing; assay: Anti-nociception writhing test (acetic acid); assay type: in vivo, Fisher 344 rats; settings: 0.0057 mmol/kg body weight i.p., 0.6% acetic acid after 30 min
From the text: The acetic acid-induced writhing test is a quick, simple and reproducible method, despite the fact that it lacks specialization. […] The animals (Fisher 344 rats), were housed under standard conditions, and received a diet of commercial food pellets and water ad libitum during the maintenance, but were entirely fasted during the experiment period. Both sexes were used, while pregnant females were excluded. Each group was composed of 6–15 animals. Our studies were in accordance with recognized guidelines on animal experimentation (guidelines for the care and use of laboratory animals published by the Greek Government 160/1991, based on EU regulations 86/609). Rats were kept in the Centre of the School of Veterinary Medicine (EL54 BIO42), Aristotle University of Thessaloniki, which is registered by the official state veterinary authorities (presidential degree 56/2013, in harmony with the European Directive 2010/63/EEC). The experimental protocols were approved by the Animal Ethics Committee of the Prefecture of Central Macedonia. For the study of the analgesic activity of the tested compounds, pain is provoked with acetic acid. Animals were divided in three five-membered groups, according to our reported method. After treatment with the tested compounds (0.0057 mmol/kg body weight; intraperitoneally) in the first group, the second group was used as a positive control (aspirin; 0.0057 mmol/kg body weight i.p.) and the third group served as the control in which saline was administered (negative control). After 30 min, 0.6% acetic acid (1 mL/kg body weight) was injected i.p. The number of writhes was recorded for each animal every 5 min during a subsequent 30 min period (Table 6).

[4] = target: T1, soybean lipoxygenase; assay: Soybean lipoxygenase inhibition study; assay type: biochemical

| Compound | LOX % Inhibition at 100 µM [1] [%] | ABTS^+ % 100 µM (decolorization activity) [2] | Writhing Inhibition (%) [3] | inhibition at 100 µM [1] [%] | melting point [°C] | pIC50 ([1]; soybean lipoxygenase, read-out: LOX IC50) | inhibition at 100 µM ([4]; compound 100 µM, linoleic acid sodium salt 50 µM, read-out: LOX % Inhibition 100 µM, LLA 50 µM) [%] | type of LOX inhibition ([4]; varying sodium linoleate concentration, enzyme and compound kept stable) |
| --- | --- | --- | --- | --- | --- | --- | --- | --- |
| 1-(5-(4-((4-bromobenzyl)oxy)phenyl)-3-(thiophen-2-yl)-1H-pyrazol-1-yl)ethan-1-one [Compound 2c] | 42 | no |  |  |  |  |  |  |
| 5-(4-((4-bromobenzyl)oxy)phenyl)-3-(4-chlorophenyl)-4,5-dihydro-1H-pyrazole [Compound 2e] | 16 | 30% | 66.1 * % |  |  |  |  |  |
| c1ccc(C2=NNC(c3cccc4ccccc34)C2)cc1 (stereo not drawn) [Compound 2a, 5-(naphthalen-1-yl)-3-phenyl-4,5-dihydro-1H-pyrazole] |  | no |  | 35 | 45 to 47 |  |  |  |
| Clc1ccc(C2=NNC(c3ccc4[nH]ccc4c3)C2)cc1 (stereo not drawn) [Compound 2b, 5-(3-(4-chlorophenyl)-4,5-dihydro-1H-pyrazol-5-yl)-1H-indole] |  | no |  | 17 | 96 to 98 |  |  |  |
| Brc1ccc(COc2ccc(C3CC(c4ccccc4)=NN3)cc2)cc1 (stereo not drawn) [Compound 2d, 5-(4-((4-bromobenzyl)oxy)phenyl)-3-phenyl-4,5-dihydro-1H-pyrazole] |  | 15% | 54.2 * % | 13 | 98 to 100 |  |  |  |
| CC(=O)n1nc(-c2ccccc2)cc1-c1ccc2[nH]ccc2c1 [Compound 2f, 1-(5-(1H-indol-5-yl)-3-phenyl-1H-pyrazol-1-yl)ethan-1-one] |  | no |  | 3 | 65 to 66 |  |  |  |
| CC(=O)n1nc(-c2ccc(Cl)cc2)cc1-c1cccc2ccccc12 [Compound 2g, 1-(3-(4-chlorophenyl)-5-(naphthalen-1-yl)-1H-pyrazol-1-yl)ethan-1-one] |  | no |  | 60 | 53 to 55 | 4.10 | 89.6 | competitive inhibition |
| CC(=O)n1nc(-c2ccccc2)cc1-c1cccc(Oc2ccccc2)c1 [Compound 2h, 1-(5-(3-phenoxyphenyl)-3-phenyl-1H-pyrazol-1-yl)ethan-1-one] |  | no |  | 26 | 44 to 46 |  |  |  |
